Results: patent publication US8299111B2, “Compounds which modulate the CB2 receptor” (Boehringer Ingelheim International GmbH, priority 2006, dated 2012)

Biological target: T1, human CB2R (Homo sapiens, UniProt P34972)
T1 construct: host or cells: CHO cells
Assay: CB2R mediated modulation of cAMP synthesis
Format: cell-based
Conditions: found through the use of the above described assays (binding and cAMP); CHO cells expressing human CB2R, forskolin-stimulated cAMP
Summary of the method: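 CHO cells expressing human CB2R were treated for 30 min at 37 °C with compound in buffer containing 1 mM IBMX, 0.25% BSA and 10 uM forskolin. cAMP was measured after lysis. EC50 is the concentration giving 50% inhibition of forskolin-stimulated cAMP, scaled to the level set by 1 uM CP55940, fitted by four-parameter logistic.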

T1 sequence (P34972 whole entry): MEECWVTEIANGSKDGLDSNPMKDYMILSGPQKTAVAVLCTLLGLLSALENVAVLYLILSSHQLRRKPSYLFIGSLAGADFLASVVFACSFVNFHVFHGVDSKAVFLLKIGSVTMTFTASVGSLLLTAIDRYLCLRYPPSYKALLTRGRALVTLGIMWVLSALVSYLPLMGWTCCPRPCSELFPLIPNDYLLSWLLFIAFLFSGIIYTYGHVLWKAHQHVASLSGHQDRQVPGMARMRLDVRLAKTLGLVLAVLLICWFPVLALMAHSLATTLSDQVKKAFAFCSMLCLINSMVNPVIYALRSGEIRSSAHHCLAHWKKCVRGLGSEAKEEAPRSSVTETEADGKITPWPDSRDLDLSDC

| Compound | agonistic activity |
| --- | --- |
| CC(C)(C)c1cc(NC(=O)C2(S(=O)(=O)c3ccc(C(F)(F)F)cc3)CC2)no1 [1-(4-Trifluoromethyl-benzenesulfonyl)-cyclopropanecarboxylic acid (5-tert-butyl-isoxazol-3-yl)-amide] | agonistic activity |
| Cn1nc(C(C)(C)C)cc1NC(=O)C1(S(=O)(=O)c2ccc(C(F)(F)F)cc2)CCOCC1 [4-(4-Trifluoromethyl-benzenesulfonyl)-tetrahydro-pyran-4-carboxylic acid (5-tert-butyl-2-methyl-2H-pyrazol-3-yl)-amide] | agonistic activity |
| Cn1nc(C(C)(C)C)cc1NC(=O)C(C)(C)S(=O)(=O)c1ccc(C(F)(F)F)nc1 [N-(5-tert-Butyl-2-methyl-2H-pyrazol-3-yl)-2-methyl-2-(6-trifluoromethyl-pyridine-3-sulfonyl)-propionamide] | agonistic activity |
| CC1(C)CCc2cc(S(=O)(=O)C(C)(C)C(=O)Nc3cc(C(C)(C)C)on3)ccc2O1 [N-(5-tert-Butyl-isoxazol-3-yl)-2-(2,2-dimethyl-chroman-6-sulfonyl)-2-methyl-propionamide] | agonistic activity |
| CC(C)(C)c1cc(NC(=O)C2(S(=O)(=O)c3ccc(Cl)cc3)CC2)[nH]n1 [1-(4-Chloro-benzenesulfonyl)-cyclopropanecarboxylic acid (5-tert-butyl-2H-pyrazol-3-yl)-amide] | agonistic activity |
| Cc1nc(NC(=O)C2(S(=O)(=O)c3ccc(Cl)cc3)CCC2)sc1C(C)(C)C [1-(4-Chloro-benzenesulfonyl)-cyclobutanecarboxylic acid (5-tert-butyl-4-methyl-thiazol-2-yl)-amide] | agonistic activity |
| Cc1ccc(NC(=O)C(C)(C)S(=O)(=O)c2ccc(C(F)(F)F)nc2)nc1 [2-methyl-N-(5-methylpyridin-2-yl)-2-{[6-(trifluoromethyl)pyridin-3-yl]sulfonyl}propanamide] | agonistic activity |
| CC(C)(C(=O)Nc1cccc(C(F)(F)F)n1)S(=O)(=O)c1cc(F)ccc1F [2-(2,5-Difluoro-benzenesulfonyl)-2-methyl-N-(6-trifluoromethyl-pyridin-2-yl)-propionamide] | agonistic activity |
| Cc1ccc(S(=O)(=O)C(C)(C)C(=O)Nc2nc(C(F)(F)F)cs2)cc1 [2-Methyl-2-(toluene-4-sulfonyl)-N-(4-trifluoromethyl-thiazol-2-yl)-propionamide] | agonistic activity |
| CC(C)(C)c1cc(NC(=O)C(C)(C)S(=O)(=O)c2ccc(C(F)(F)F)nc2)no1 [N-(5-tert-Butyl-isoxazol-3-yl)-2-methyl-2-(6-trifluoromethyl-pyridine-3-sulfonyl)-propionamide] | agonistic activity |
| CCc1sc(NC(=O)C(C)(C)S(=O)(=O)c2ccc(S(C)(=O)=O)cc2)nc1-c1ccccc1 [N-(5-ethyl-4-phenyl-1,3-thiazol-2-yl)-2-methyl-2-{[4-(methylsulfonyl)phenyl]sulfonyl}propanamide] | agonistic activity |
| Cc1cnc(NC(=O)C(C)(C)S(=O)(=O)c2ccc(C(F)(F)F)cn2)s1 [2-Methyl-N-(5-methyl-thiazol-2-yl)-2-(5-trifluoromethyl-pyridine-2-sulfonyl)-propionamide] | agonistic activity |
| CC(C)(C)c1csc(NC(=O)C(C)(C)S(=O)(=O)c2ccc(C(F)(F)F)nc2)n1 [N-(4-tert-Butyl-thiazol-2-yl)-2-methyl-2-(6-trifluoromethyl-pyridine-3-sulfonyl)-propionamide] | agonistic activity |
| CC(C)(C(=O)Nc1nc(-c2ccccc2)cs1)S(=O)(=O)c1ccc(Cl)cc1F [2-[(4-chloro-2-fluorophenyl)sulfonyl]-2-methyl-N-(4-phenyl-1,3-thiazol-2-yl)propanamide] | agonistic activity |
| COc1ccc(S(=O)(=O)C(C)(C)C(=O)Nc2cc(C(C)(C)C)nn2C)cn1 [N-(5-tert-Butyl-2-methyl-2H-pyrazol-3-yl)-2-(6-methoxy-pyridine-3-sulfonyl)-2-methyl-propionamide] | agonistic activity |

Now from value to molecule:

| agonistic activity | Compound |
| --- | --- |
| agonistic activity | CC(C)(C(=O)Nc1nc(-c2ccncc2)cs1)S(=O)(=O)c1ccc(Cl)cc1 [2-(4-Chloro-benzenesulfonyl)-2-methyl-N-(4-pyridin-4-yl-thiazol-2-yl)-propionamide] |
| agonistic activity | CC(C)(C(=O)Nc1cccnc1)S(=O)(=O)c1ccc(Cl)cc1 [2-(4-Chloro-benzenesulfonyl)-2-methyl-N-pyridin-3-yl-propionamide] |
| agonistic activity | CC(C)(C(=O)Nc1nc(-c2cccs2)cs1)S(=O)(=O)c1ccc(Cl)cc1 [2-(4-Chloro-benzenesulfonyl)-2-methyl-N-(4-thiophen-2-yl-thiazol-2-yl)-propionamide] |
| agonistic activity | CC(C)(C(=O)Nc1ccc(C(F)(F)F)cc1)S(=O)(=O)c1ccc(C(F)(F)F)nc1 [2-methyl-N-[4-(trifluoromethyl)phenyl]-2-{[6-(trifluoromethyl)pyridin-3-yl]sulfonyl}propanamide] |
| agonistic activity | CC(C)(C)c1cc(NC(=O)C(C)(C)S(=O)(=O)c2cccc(C#N)c2)no1 [N-(5-tert-Butyl-isoxazol-3-yl)-2-(3-cyano-benzenesulfonyl)-2-methyl-propionamide] |
| agonistic activity | CC(C)(C)c1ccc(NC(=O)C(C)(C)S(=O)(=O)c2ccc(Cl)cc2)cc1 [N-(4-tert-Butyl-phenyl)-2-(4-chloro-benzenesulfonyl)-2-methyl-propionamide] |
| agonistic activity | CCc1ccnc(NC(=O)C(C)(C)S(=O)(=O)c2ccc(Cl)cc2F)c1 [2-[(4-chloro-2-fluorophenyl)sulfonyl]-N-(4-ethylpyridin-2-yl)-2-methylpropanamide] |
| agonistic activity | CC(C)(C)c1cccc(NC(=O)C(C)(C)S(=O)(=O)c2ccc(Cl)cc2)c1 [N-(3-tert-Butyl-phenyl)-2-(4-chloro-benzenesulfonyl)-2-methyl-propionamide] |
| agonistic activity | CCc1c(C)noc1NC(=O)C(C)(C)S(=O)(=O)c1ccc(Cl)cc1 [2-(4-Chloro-benzenesulfonyl)-N-(4-ethyl-3-methyl-isoxazol-5-yl)-2-methyl-propionamide] |
| agonistic activity | CC(C)(C(=O)Nc1ncc(-c2ccccc2)s1)S(=O)(=O)c1ccc(Cl)cc1 [2-(4-Chloro-benzenesulfonyl)-2-methyl-N-(5-phenyl-thiazol-2-yl)-propionamide] |
| agonistic activity | CC(C)(C)c1cc(NC(=O)C(C)(C)S(=O)(=O)c2cccc(F)c2)no1 [N-(5-tert-Butyl-isoxazol-3-yl)-2-(3-fluoro-benzenesulfonyl)-2-methyl-propionamide] |
| agonistic activity | Cc1ccnc(NC(=O)C(C)(C)S(=O)(=O)c2ccc(Cl)cc2)n1 [2-[(4-chlorophenyl)sulfonyl]-2-methyl-N-(4-methylpyrimidin-2-yl)propanamide] |
| agonistic activity | Cc1c(-c2ccccc2)noc1NC(=O)C(C)(C)S(=O)(=O)c1ccc(Cl)cc1 [2-(4-Chloro-benzenesulfonyl)-2-methyl-N-(4-methyl-3-phenyl-isoxazol-5-yl)-propionamide] |
